Laboratory results from patent US6951651B2, “CTL epitope analogs” (priority 1999, dated 2005).
Ends that are not written are not given here.

Experiments:
[1] = test system: T cell clone 3-3F4; assay: Chromium release assay, peptide-sensitized targets lysed by T cell clone 3-3F4; format: cell-based, human; conditions: for Conc. (nM): concentration of peptide in which specific killing was between 15 and 30 percent: HLA A*0201-restricted EBVLCL targets, 3-3F4 effectors, E:T=5, 10-fold dilutions 500-0.00005 nM; for Peptide Concentration (nM), Amide, 3-3F4: carboxyl terminal amide peptide; for Peptide Concentration (nM), Amide, 3-3F4 / Peptide Concentration (nM), Free Acid, 3-3F4: chromium release, T cell clone 3-3F4; for recognition by T cell clone 3-3F4 (in words): chromium release assay
Experimental: Nonamer peptides with the substitutions as shown at each position were synthesized as described in Example 1. […] Results of these assays are shown in the right-hand column of Table II, in terms of concentration of peptide (nM) in which specific killing was between 15 and 30 percent. Results presented are the average from at least three independent experiments carried out on different days using different batches of T cell […]. Peptides were tested using 10-fold dilutions, ranging from 500-0.00005 nM.
(§1) To take advantage of the increased immunogenicity of peptides 44 and 46, while maintaining the universal recognition of the native peptide, library-directed changes were made to peptides 44 and 46, substituting back the native amino acids. A series of 21 peptides were constructed based upon the sequence of the tetra-substituted peptides 44 and 46 in each of the carboxyl terminal amidated and free acid forms. The peptides contained single, double, or triple substitutions of amino acids of the native sequence at the positions indicated. These peptides were assayed utilizing a standard chromium release assay with the screening T cell clone, 3-3F4, and a representative T cell clone (VB57) from another individual expressing a different T cell receptor.

[2] = test system: T cell clone VB57; assay: Chromium release assay, peptide-sensitized targets lysed by T cell clone VB57; format: cell-based, human; conditions: for Peptide Concentration (nM), Amide, VB57: carboxyl terminal amide peptide
From the text: as §1

| Substance | Conc. (nM): concentration of peptide in which specific killing was between 15 and 30 percent [1] | Peptide Concentration (nM), Amide, 3-3F4 [1] | Peptide Concentration (nM), Amide, VB57 [2] | Peptide Concentration (nM), Free Acid, 3-3F4 [1] | further results |
| --- | --- | --- | --- | --- | --- |
| 58N: nonamer YLLWYVTSV amide, SEQ ID NO 27 (YLLWYVTSV-NH2) [Peptide 58N] | 500 nM | – | – | – | – |
| 194N: nonamer NLLPMVATV amide, SEQ ID NO 39 (NLLPMVATV-NH2) [Peptide 194N] | – | 0.05 nM | 0.5 nM | – | – |
| 55N: nonamer YLLWMVTPV amide, SEQ ID NO 26 (YLLWMVTPV-NH2) [Peptide 55N] | 500 nM | – | – | – | – |
| 125N: nonamer YLVPMVTSV amide, SEQ ID NO 71 (YLVPMVTSV-NH2) [Peptide 125N] | – | 0.05 nM | >5 nM | – | – |
| 117N: nonamer NLLPMVTTV amide, SEQ ID NO 49 (NLLPMVTTV-NH2) [Peptide 117N] | – | 0.05 nM | >5 nM | – | – |
| 124N: nonamer YLVPMVVSV amide, SEQ ID NO 69 (YLVPMVVSV-NH2) [Peptide 124N] | – | 0.5 nM | 5 nM | – | – |
| 195N: nonamer YLLPMVATV amide, SEQ ID NO 57 (YLLPMVATV-NH2) [Peptide 195N] | – | 0.005 nM | 0.5 nM | – | – |
| 120N: nonamer NLVPMVTSV amide, SEQ ID NO 55 (NLVPMVTSV-NH2) [Peptide 120N] | – | 0.05 nM | >5 nM | – | – |
| 122C: nonamer YLLPMVTTV, SEQ ID NO 76 (YLLPMVTTV-OH) [Peptide 122C] | – | – | – | >5 nM | Peptide Concentration (nM), Free Acid, VB57 [2]: >5 nM |
| 114C: nonamer YLVPMVTTV, SEQ ID NO 62 (YLVPMVTTV-OH) [Peptide 114C] | – | – | – | 0.5 nM | Peptide Concentration (nM), Free Acid, VB57 [2]: 5 nM |
| 126C: nonamer NLLPMVVSV, SEQ ID NO 66 (NLLPMVVSV-OH) [Peptide 126C] | – | – | – | 5 nM | Peptide Concentration (nM), Free Acid, VB57 [2]: >5 nM |
| 111N: nonamer NLVPMVTTV amide, SEQ ID NO 43 (NLVPMVTTV-NH2) [Peptide 111N] | – | 0.05 nM | >5 nM | – | – |
| 45N: nonamer YLLPMVVPV amide, SEQ ID NO 28 (YLLPMVVPV-NH2) [Peptide 45N] | >500 nM | – | – | – | recognition by T cell clone 3-3F4 (in words) [1]: less active than the native sequence |
| 122N: nonamer YLLPMVTTV amide, SEQ ID NO 75 (YLLPMVTTV-NH2) [Peptide 122N] | – | 5 nM | >5 nM | – | – |
| 52N: nonamer YLLWMVVSV amide, SEQ ID NO 24 (YLLWMVVSV-NH2) [Peptide 52N] | 500 nM | – | – | – | – |
| 112N: nonamer NLVPMVASV amide, SEQ ID NO 45 (NLVPMVASV-NH2) [Peptide 112N] | – | 0.5 nM | 0.5 nM | – | – |
| 50N: nonamer YLLPYVTSV amide, SEQ ID NO 31 (YLLPYVTSV-NH2) [Peptide 50N] | >500 nM | – | – | – | – |
| 124C: nonamer YLVPMVVSV, SEQ ID NO 70 (YLVPMVVSV-OH) [Peptide 124C] | – | – | – | >5 nM | Peptide Concentration (nM), Free Acid, VB57 [2]: >5 nM |
| 48N: nonamer YLLPYVVSV amide, SEQ ID NO 29 (YLLPYVVSV-NH2) [Peptide 48N] | >500 nM | – | – | – | – |
| 114N: nonamer YLVPMVTTV amide, SEQ ID NO 61 (YLVPMVTTV-NH2) [Peptide 114N] | – | 0.05 nM | 5 nM | – | – |

| Substance | Conc. (nM): concentration of peptide in which specific killing was between 15 and 30 percent [1] | Peptide Concentration (nM), Amide, 3-3F4 [1] | Peptide Concentration (nM), Amide, VB57 [2] | Peptide Concentration (nM), Free Acid, 3-3F4 [1] | further results |
| --- | --- | --- | --- | --- | --- |
| 120C: nonamer NLVPMVTSV, SEQ ID NO 56 (NLVPMVTSV-OH) [Peptide 120C] | – | – | – | 5 nM | Peptide Concentration (nM), Free Acid, VB57 [2]: >5 nM |
| 125C: nonamer YLVPMVTSV, SEQ ID NO 72 (YLVPMVTSV-OH) [Peptide 125C] | – | – | – | >5 nM | Peptide Concentration (nM), Free Acid, VB57 [2]: >5 nM |
| 116N: nonamer NLLPMVVTV amide, SEQ ID NO 47 (NLLPMVVTV-NH2) [Peptide 116N] | – | 0.5 nM | >5 nM | – | – |
| 54N: nonamer YLLWMVTSV amide, SEQ ID NO 21 (YLLWMVTSV-NH2) [Peptide 54N] | 0.5 nM | – | – | – | – |
| 47N: nonamer YLLPMVTPV amide, SEQ ID NO 23 (YLLPMVTPV-NH2) [Peptide 47N] | 500 nM | – | – | – | recognition by T cell clone 3-3F4 (in words) [1]: less active than the native sequence |
| 117C: nonamer NLLPMVTTV, SEQ ID NO 50 (NLLPMVTTV-OH) [Peptide 117C] | – | – | – | 0.5 nM | Peptide Concentration (nM), Free Acid, VB57 [2]: 5 nM |
| 126N: nonamer NLLPMVVSV amide, SEQ ID NO 65 (NLLPMVVSV-NH2) [Peptide 126N] | – | 0.005 nM | 0.5 nM | – | – |
| 59N: nonamer YLLWYVTPV amide, SEQ ID NO 34 (YLLWYVTPV-NH2) [Peptide 59N] | >500 nM | – | – | – | – |
| 195C: nonamer YLLPMVATV, SEQ ID NO 58 (YLLPMVATV-OH) [Peptide 195C] | – | – | – | >5 nM | Peptide Concentration (nM), Free Acid, VB57 [2]: >5 nM |
| 116C: nonamer NLLPMVVTV, SEQ ID NO 48 (NLLPMVVTV-OH) [Peptide 116C] | – | – | – | >5 nM | – |
| 121C: nonamer YLLPMVVTV, SEQ ID NO 74 (YLLPMVVTV-OH) [Peptide 121C] | – | – | – | >5 nM | – |
| 57N: nonamer YLLWYVVPV amide, SEQ ID NO 33 (YLLWYVVPV-NH2) [Peptide 57N] | >500 nM | – | – | – | – |
| 51N: nonamer YLLPYVTPV amide, SEQ ID NO 32 (YLLPYVTPV-NH2) [Peptide 51N] | >500 nM | – | – | – | – |
| 53N: nonamer YLLWMVVPV amide, SEQ ID NO 25 (YLLWMVVPV-NH2) [Peptide 53N] | 500 nM | – | – | – | – |
| 56N: nonamer YLLWYVVSV amide, SEQ ID NO 22 (YLLWYVVSV-NH2) [Peptide 56N] | 50 nM | – | – | – | – |
| 110C: nonamer NLVPMVVTV, SEQ ID NO 42 (NLVPMVVTV-OH) [Peptide 110C] | – | – | – | 0.5 nM | – |
| 49N: nonamer YLLPYVVPV amide, SEQ ID NO 30 (YLLPYVVPV-NH2) [Peptide 49N] | >500 nM | – | – | – | – |
| 113C: nonamer YLVPMVVTV, SEQ ID NO 60 (YLVPMVVTV-OH) [Peptide 113C] | – | – | – | >5 nM | – |
| A7N: native sequence NLVPMVATV with amidated carboxyl terminus, SEQ ID NO 18 (NLVPMVATV-NH2) [Peptide A7N] | 0.5 nM | – | – | – | – |
